Test results as given in patent US20030125337A1, “Inhibitors of multidrug transporters” (priority 1998, published 2003).
Values after ≈ are worked out from the molar mass of the structure shown. Like-named read-outs stand apart in the source and are kept apart here.

How the values were obtained:
[1] = target: T1, NorA (Staphylococcus aureus, UniProt P0A0J7); type: cell-based; details: FIG. 8; reserpine 20 μg/ml, INF 55, 240, 271, 392 5 μg/ml, INF 277 10 μg/ml
T1 construct: expressed in transfected cells; host or cells: Bacillus subtilis strain NA
T1 sequence (P0A0J7 whole entry): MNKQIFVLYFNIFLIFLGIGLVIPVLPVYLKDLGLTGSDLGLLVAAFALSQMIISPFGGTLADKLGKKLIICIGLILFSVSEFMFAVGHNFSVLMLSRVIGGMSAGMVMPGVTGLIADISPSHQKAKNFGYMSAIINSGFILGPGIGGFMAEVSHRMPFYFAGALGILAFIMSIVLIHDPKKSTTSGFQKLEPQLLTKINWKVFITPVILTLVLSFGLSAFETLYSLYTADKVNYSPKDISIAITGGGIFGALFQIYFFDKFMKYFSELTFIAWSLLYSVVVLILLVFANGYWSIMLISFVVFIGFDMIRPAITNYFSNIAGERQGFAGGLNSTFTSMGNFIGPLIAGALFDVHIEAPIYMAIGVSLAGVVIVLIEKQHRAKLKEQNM
Description: Effect of the lead inhibitors on ethidium efflux from NA cells. NA cells were loaded with ethidium in the presence of reserpine and allowed to efflux in the absence of reserpine (A) in the presence of 20 μg/ml reserpine (B), 5 μg/ml of INF 55 (C), 5 μg/ml of INF 240 (D), 5 μg/ml of INF 271 (E), 5 μg/ml of INF 392 (F), or 10 μg/ml of INF 277 (G). Fluorescence intensity is proportional to the amount of ethidium remaining inside the cells.
NA cells overexpressing NorA were loaded with ethidium bromide in the presence of reserpine (20 μg/ml). After washing, cells were placed in a fluorimeter cuvette with fresh medium.

[2] = tested on: wild type S. aureus SA1199; type: cell-based; details: INF inhibitors 5 μg/ml, reserpine 20 μg/ml; for Fold inhibition of emergence of resistance: ciprofloxacin resistance, SA1199
Description: The effect of the inhibitors on the rate of emergence of in vitro selected single-step ciprofloxacin resistant mutants of wild type S. aureus SA1199 (Kaatz et al., 1990) was determined.
Ciprofloxacin resistance in first step in vitro selected mutants of S. aureus is predominantly due to specific point mutations in the targets of this drug, topoisomerase IV and gyrase (Cambau and Gutman, 1993; Ferrero et al., 1994).

[3] = tested on: NorA-overexpressing S. aureus, SA1199B; assay: Frequency of emergence of SA1199B mutants insensitive to the NorA inhibitor (adaptation of NorA); type: cell-based; details: mutagenized SA1199B, ethidium bromide 10 μg/ml, INF inhibitors 5 μg/ml, reserpine 20 μg/ml, 48 h
Description: To evaluate the possibility of such mutations arising in the NorA transporter the inventors determined the frequency of emergence of mutants of NorA-overexpressing S. aureus, SA1199B, that retained resistance to a NorA substrate in spite of the presence of a NorA inhibitor. […] After a 48 h incubation period the number of colonies on each plate was determined.

[4] = tested on: S. aureus (SA1199B); assay: Minimal inhibitor concentration decreasing the ciprofloxacin MIC two fold, S. aureus SA1199B; type: cell-based; details: Staphylococcus aureus, read-out: Effectivity IC50* S. Aureus
[5] = tested on: S. pneumoniae (SPC2A); assay: Minimal inhibitor concentration decreasing the ciprofloxacin MIC two fold, S. pneumoniae SPC2A; type: cell-based; details: Streptococcus pneumoniae; SPC2A; minimal concentration required to decrease the MIC for ciprofloxacin by two fold; N.A. = not active at 5 μg/ml; read-out: IC50 S. Pneumoniae
[6] = target: T1, NorA; details: reference for CoMFA predictions; cited from earlier work
[7] = tested on: first step mutants of S. pneumoniae (ATCC 49619); details: three first step mutants, non-toxic concentration
[8] = target: Bmr (Bacillus subtilis, UniProt P33449); details: cited from earlier work
Chain of Bmr (P33449 whole entry): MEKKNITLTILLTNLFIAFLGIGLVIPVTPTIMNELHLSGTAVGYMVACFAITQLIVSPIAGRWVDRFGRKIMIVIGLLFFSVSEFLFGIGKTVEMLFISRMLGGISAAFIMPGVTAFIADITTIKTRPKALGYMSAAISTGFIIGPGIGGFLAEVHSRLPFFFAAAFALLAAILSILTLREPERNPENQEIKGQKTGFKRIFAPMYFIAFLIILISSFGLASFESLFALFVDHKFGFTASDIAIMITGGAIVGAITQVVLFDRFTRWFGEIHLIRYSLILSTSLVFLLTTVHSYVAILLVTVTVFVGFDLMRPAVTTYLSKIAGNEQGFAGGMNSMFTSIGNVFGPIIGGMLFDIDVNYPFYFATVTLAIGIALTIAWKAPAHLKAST

[9] = target: T1, NorA; details: cited from earlier work
[10] = tested on: B. subtilis; details: inhibition of the Bmr transporter; cited from earlier work
[11] = tested on: wild-type S. aureus; details: cited from earlier work
[12] = tested on: S. pneumoniae; details: cited from earlier work
[13] = tested on: E. faecalis; details: cited from earlier work
[14] = S. pneumoniae strain EBR, non-toxic concentrations

## COC(=O)[C@H]1[C@H]2C[C@@H]3c4[nH]c5cc(OC)ccc5c4CCN3C[C@H]2C[C@@H](OC(=O)c2cc(OC)c(OC)c(OC)c2)[C@@H]1OC [Reserpine, reserpine]
[1]
  inhibition of the decrease in fluorescence due to NorA-mediated ethidium efflux: dramatically inhibited
[2]; SA1199, ciprofloxacin 1 μg/ml, 48 h
  Frequency of emergence of variants resistant to two fold the MIC of ciprofloxacin, Spontaneous: <5 × 10^−11
[2]; SA1199 mutagenized with ethylmethane sulfonate
  Frequency of emergence of variants resistant to two fold the MIC of ciprofloxacin, Mutagenized: <2.5 × 10^−10
[2]
  Fold inhibition of emergence of resistance: >50
[2]; listed as reserpine
  Fold inhibition of emergence of resistance: more than one order of magnitude
[3]
  Frequency of adaptation of NorA (mutants insensitive to the inhibitor): approximately 2×10^−8
[4]
  IC50: 6.25 µg/mL (≈ 10.3 µM)
[5]
  IC50: 5 µg/mL (≈ 8.21 µM)
[6]
  concentration at which known to be active: 5 µg/mL
[7]
  reversal of resistance to ciprofloxacin and ethidium bromide: reversed the resistance
[8]
  inhibition of drug efflux mediated by Bmr: completely inhibited
[9]
  inhibition of drug efflux mediated by NorA: completely inhibited
[10]
  reduction of the MIC of norfloxacin: by a factor of five
[11]
  reduction of the MIC of norfloxacin: at least four-fold
[12]; [14]
  inhibition of ethidium efflux: inhibited ethidium efflux
  reversal of resistance to ethidium and fluoroquinolones: reversed the resistance
[12]; wild type S. pneumoniae
  potentiation of susceptibility to ethidium and fluoroquinolones: two to three fold
[12]; wild-type S. pneumoniae
  factor of reduction of the MIC of norfloxacin and ciprofloxacin: 2-3
[13]
  increase in susceptibility to fluoroquinolones: two-fold increase
